# Assay results reported in patent US4863904A, “Dipeptides as renin inhibitors” (priority 1984, dated 1989).
# Where two headings read alike, the source gives them in different places.
# Molecular target: T1, human renin (Homo sapiens, UniProt P00797)
# T1 sequence (P00797 67-406): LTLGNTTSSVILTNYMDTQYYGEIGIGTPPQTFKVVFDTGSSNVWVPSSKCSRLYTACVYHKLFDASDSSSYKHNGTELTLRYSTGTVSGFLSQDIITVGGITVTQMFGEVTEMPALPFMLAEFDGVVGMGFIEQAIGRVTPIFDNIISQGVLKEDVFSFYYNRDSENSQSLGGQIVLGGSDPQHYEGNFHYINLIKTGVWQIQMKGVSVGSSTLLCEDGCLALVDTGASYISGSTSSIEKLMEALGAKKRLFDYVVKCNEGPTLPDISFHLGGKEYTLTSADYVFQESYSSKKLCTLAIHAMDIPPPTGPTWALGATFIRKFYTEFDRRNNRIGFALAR
# Test: Human renin-sheep renin substrate reaction system in vitro
# Type: biochemical
# Conditions: purified human renin, semipurified sheep renin substrate, pH 7.4, 37° C., 15 minutes, angiotensin I by radioimmunoassay
# Procedure: The mixture was incubated for 15 minutes on a water bath at 37° C., and the reaction mixture was allowed to stand for 5 minutes on a water bath at 100° C. to stop the reaction. After cooling, 200 μl of the solution was taken up and the amount of angiotensin I produced by the addition of renin was determined by radioimmunoassay. The inhibitory effect was calculated by the following equation. [formula]
# As a control, the same procedure as above was carried out by using 50 μl of dimethyl sulfoxide alone in place of the 50 μl of dimethyl sulfoxide solution containing a dipeptide of the present invention.
# [1] = read-out: IC50 (molar concentration)
Compound,IC50 (IC50 (molar concentration)) [µM],IC50 [1] [µM]
CC(C)C[C@@H](CO)NC(=O)[C@H](Cc1c[nH]cn1)NC(=O)C(CCCC(=O)c1ccccc1)Cc1cccc2ccccc12 (mixture of isomers),13,
CC(C)C[C@@H](C=O)NC(=O)[C@H](Cc1c[nH]cn1)NC(=O)C(CCOCCc1ccccc1)Cc1cccc2ccccc12 (mixture of isomers) [N-[(±)-2-(1-Naphthylmethyl)-4-phenethoxybutyryl]-L-histidyl-L-leucinal],,0.075
CC(C)C[C@@H](C=O)NC(=O)[C@H](Cc1c[nH]cn1)NC(=O)C(CC=Cc1ccccc1)Cc1cccc2ccccc12 (mixture of isomers) [N-[(±)-2-(1-Naphthylmethyl)-5-phenyl-4-pentenoyl]-L-histidyl-L-leucinal],,0.22
CC(C)C[C@@H](CO)NC(=O)[C@H](Cc1c[nH]cn1)NC(=O)C(CCCc1ccccc1)Cc1cccc2ccccc12 (mixture of isomers) [N-[(±)-2-(1-Naphthylmethyl)-5-phenylvaleryl]-L-histidyl-L-leucinol],,13
"CC(C)C[C@@H](CO)NC(=O)[C@H](Cc1c[nH]cn1)NC(=O)C(CC=CC=Cc1ccccc1)Cc1cccc2ccccc12 (mixture of isomers) [N-[(±)-2-(1-Naphthylmethyl)-7-phenyl-4,6-heptadienoyl]-L-histidyl-L-leucinol]",,12
CC(C)C[C@@H](C=O)NC(=O)[C@H](Cc1c[nH]cn1)NC(=O)C(Cc1ccccc1)C(=O)NCc1cccc2ccccc12 (mixture of isomers) [N-[(±)-2-(1-Naphthylmethylcarbamoyl)-3-phenylpropionyl]-L-histidyl-L-leucinal],,8.2
CC(C)C[C@@H](C=O)NC(=O)[C@H](Cc1c[nH]cn1)NC(=O)C(CNC(=O)Cc1cccc2ccccc12)Cc1ccccc1 (mixture of isomers) [N-[(±)-2-Benzyl-3-(1-naphthylacetamido)propionyl]-L-histidyl-L-leucinal],,7.6
CC(C)C[C@@H](C=O)NC(=O)[C@H](Cc1c[nH]cn1)NC(=O)C(CC(=O)NCc1cccc2ccccc12)Cc1ccccc1 (mixture of isomers) [N-[(±)-2-Benzyl-3-(1-naphthylmethylcarbamoyl)propionyl]-L-histidyl-L-leucinal],,7.2

# Next, values leading:
IC50 (IC50 (molar concentration)) [µM],IC50 [1] [µM],Compound
,76,CC(C)C[C@@H](CO)NC(=O)[C@H](Cc1c[nH]cn1)NC(=O)C(CCCCc1ccccc1)Oc1cccc2ccccc12 (mixture of isomers) [N-[(±)-2-(1-Naphthoxy)-6-phenylhexanoyl]-L-histidyl-L-leucinol]
15,,CC(C)C[C@@H](CO)NC(=O)[C@H](Cc1c[nH]cn1)NC(=O)C(CCOCCc1ccccc1)Cc1cccc2ccccc12 (mixture of isomers) [N-[(±)-2-(1-Naphthylmethyl)-4-phenethoxybutyryl]-L-histidyl-L-leucinol]
,26,CC(C)C[C@@H](CO)NC(=O)[C@H](Cc1c[nH]cn1)NC(=O)C(CCCOc1ccccc1)Cc1cccc2ccccc12 (mixture of isomers) [N-[(±)-2-(1-Naphthylmethyl)-5-phenoxyvaleryl]-L-histidyl-L-leucinol]
,2.7,CC(C)C[C@@H](CO)NC(=O)[C@H](Cc1c[nH]cn1)NC(=O)C(CC=Cc1ccccc1)Cc1cccc2ccccc12 (mixture of isomers) [N-[(±)-2-(1-Naphthylmethyl)-5-phenyl-4-pentenoyl]-L-histidyl-L-leucinol]
5.4,,CC(C)C[C@@H](CO)NC(=O)[C@H](Cc1c[nH]cn1)NC(=O)C(CCCCc1ccccc1)Cc1cccc2ccccc12 (mixture of isomers) [N-[(±)-2-(1-Naphthylmethyl)-6-phenylhexanoyl]-L-histidyl-L-leucinol]
,0.44,"CC(C)C[C@@H](C=O)NC(=O)[C@H](Cc1c[nH]cn1)NC(=O)C(CC=CC=Cc1ccccc1)Cc1cccc2ccccc12 (mixture of isomers) [N-[(±)-2-(1-Naphthylmethyl)-7-phenyl-4,6-heptadienoyl]-L-histidyl-L-leucinal]"
